# Test results published in patent publication US12692290B2, “Modulators of tight junction permeability” (The University of Bath, priority 2020, dated 2026).
# Where “and” joins values, the source holds several entries; their conditions need not be identical. Identical values can stand only once. Like-named read-outs stand apart in the source and are kept apart here. Where a SMILES comes first, the peptide text is derived from it. [ ]: non-standard residue; d: D form.
# Experiments:
# [1] = tested on: myosin light chain (MLC) phosphorylation; assay: Western blot, ratio of pMLC to total MLC in Caco-2 lysates; assay type: cell-based, human; settings: 5 mM peptide, Caco-2 monolayers
# Procedure: (§1) Lysates of Caco-2 monolayers prepared using 200 μL RIPA buffer along with 10 μL protease and phosphatase inhibitors per well were placed in 1.5 mL Eppendorf tubes and centrifuged at 4000×g for 10 min with supernatants being removed and stored at −80° C. until separation using a 12% SDS-PAGE gel. Protein samples were mixed 1:1 with loading buffer and denatured by heating at 95° C. for 5 min with 20 μL being loaded for analysis. Separated proteins were transferred onto a nitrocellulose membrane at 30 V for 75 min. Membranes were blocked with 5% bovine serum albumin in TBS-T for 2 h prior to an overnight incubation at 4° C. with primary antibodies diluted in TBS-T. Membranes were thrice washed with TBS-T and then incubated with fluorescent-tagged secondary antibodies at room temperature for 2 h. Membranes were thrice washed with TBS-T and analysed using a Licor imaging system.
# MYPT1 binding to PP1 = assay: MYPT1/PP1 binding assay in presence of increasing PIP peptide concentrations; settings: read-out: KI for inhibition of MYPT1 binding to PP1
# Procedure: (§2) His-tagged PP1 diluted in PBS-T was incubated in nickel coated wells for 1 hour and washed three times with PBS-T. Wells were incubated with increasing concentrations of biotinylated PIP peptides or amino acids 1-299 of MYPT1. Wells were washed again three times with PBS-T and incubated with streptavidin conjugated to Alexa Fluor 488 for 1 hour. Wells were washed as previously and the plate was read for fluorescence (Ex:480 nm, Em: 510 nm).
# The binding assay with MYPT1 was repeated in the presence of increasing concentrations of PIP peptides to determine the competition between MYPT1 and the peptides.
# Caco-2 monolayers [2] = assay: TEER of Caco-2 monolayers after apical PIP peptide; assay type: cell-based, human; settings: 5 mM peptide for 180 min, then washout, 90 min recovery
# Caco-2 monolayers [3] = assay: TEER of Caco-2 monolayers after apical PIP peptide; assay type: cell-based, human; settings: for TEER % of initial baseline at time of washout: 5 mM peptide for 180 min, Caco-2; for Effect on TEER compared to control (FIG. 1): 5 mM peptide, Caco-2 monolayer, one-way ANOVA with bonferroni post-test; for TEER reduced to % of baseline: 5 mM applied to apical surface of Caco-2 monolayers
# Procedure: An immortalized human intestinal epithelial cell line (Caco-2) was maintained in DMEM/F12 (Gibco, Paisley, UK) supplemented with 10% FBS, 2 mM L-glutamine (Gibco) 100 U/mL penicillin and 100 μg/mL streptomycin (Gibco). Caco-2 cells were seeded at a density of 7×10^4/well on Transwell™ (Corning, NY) polyester membrane filters (12 mm diameter, 0.4 μm pore size). Feeding with fresh media (Life Technologies, Paisley, UK) was carried out every second day. Caco-2 monolayers with trans-epithelial electrical resistance (TEER) >350 Ω·cm^2 were used for these studies; such TEER values as measured using fixed paddle electrodes and a voltohmeter (World Precision Instruments, UK), were typically achieved between days 15-18 following seeding on Transwell™ filters.
# Apical to basal flux of 10 mg/mL 4 kDa fluorescent dextran (Sigma) was performed to assess PIP peptide impact on paracellular permeability. Apical (200 μL) and basal (500 μL) compartment media were replaced with fresh HBSS and allowed to equilibrate for 30 min when TEER measurements were obtained to ensure monolayer integrity. After apical application of the fluorescent dextra the basal compartment volume was collected at set times (typically 0, 15, 30 60, 90, 120 and 180 min) and replaced with fresh HBSS each time. Apical and basal compartment fluorescence was determined using a Fluorostar Omega microplate reader (BMG Labtech, Ortenburg, Germany). After 3 h, the apical compartment fluorescent dextran/peptide solution was removed and replaced with PBS and TEER values were recorded for a further 30 min to monitor monolayer recovery. TEER values were calculated by subtracting blank filter readings and normalized as a percentage of the initial TEER value for that monolayer.
# PP1 = PP1 (Homo sapiens, UniProt P62140); assay: Binding assay of biotinylated peptides or MYPT1 1-299 to immobilised His-tagged PP1
# Sequence of PP1 (P62140 whole entry): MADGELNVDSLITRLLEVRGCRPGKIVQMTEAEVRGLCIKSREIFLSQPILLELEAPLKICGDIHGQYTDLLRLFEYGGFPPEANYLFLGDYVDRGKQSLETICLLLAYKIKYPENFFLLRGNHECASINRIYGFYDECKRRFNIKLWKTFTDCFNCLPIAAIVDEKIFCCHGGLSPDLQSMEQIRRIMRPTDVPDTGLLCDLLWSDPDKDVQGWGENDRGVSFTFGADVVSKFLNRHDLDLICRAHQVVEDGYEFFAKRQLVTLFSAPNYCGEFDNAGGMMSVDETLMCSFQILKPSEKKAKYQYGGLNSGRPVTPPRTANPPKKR
# Procedure: as §2
# occludin = assay: Western blot for occludin in lysates of Caco-2 monolayers; assay type: cell-based, human; settings: Caco-2 monolayers treated for 90 min
# Procedure: as §1
"Kd (PP1; derived from binding curves, read-out: KD for binding to PP1)","Kd (PP1; same assay, read-out: KD for binding to PP1)",Molecule,ratio of pMLC to MLC compared to untreated control [1],Ki (MYPT1 binding to PP1),TEER % of baseline 90 min after washout (Caco-2 monolayers [2]),TEER % of initial baseline at time of washout (Caco-2 monolayers [3]),Effect on TEER compared to control (FIG. 1) (Caco-2 monolayers [3]),Kd (PP1),occludin level % of control (occludin),TEER reduced to % of baseline (Caco-2 monolayers [3])
–,–,"CC(C)[C@@H](NC(=O)[C@@H](CCCCN)NC(=O)[C@@H](Cc1ccccc1)NC(=O)[C@@H](CCCNC(=N)N)NC(=O)[C@H](N)CCCNC(=N)N)C(=O)N[C@H](CCCCN)C(=O)N[C@@H](C(=O)N[C@H](CCCCN)C(=O)N[C@H](CCCCN)C(=O)N[C@H](CCCNC(=N)N)C(=O)N[C@H](CCCCN)C(N)=O)[C@H](C)O [PIP250, H-rrfkvktkkrk-NH2, reference compound] (H-[dR][dR][dF][dK][dV][dK][dT][dK][dK][dR][dK]-NH2)",significantly increased,155 µM,54%,~ 50% and 49%,significantly different from control,610 µM,65.8%,–
–,–,"CC(C)[C@@H](NC(=O)[C@@H](CCCCN)NC(=O)[C@@H](C)NC(=O)[C@@H](CCCNC(=N)N)NC(=O)[C@H](N)CCCNC(=N)N)C(=O)N[C@H](CCCCN)C(=O)N[C@@H](C(=O)N[C@H](CCCCN)C(=O)N[C@H](CCCCN)C(=O)N[C@H](CCCNC(=N)N)C(=O)N[C@H](CCCCN)C(N)=O)[C@H](C)O [PIP251, H-rrakvktkkrk-NH2] (H-[dR][dR][dA][dK][dV][dK][dT][dK][dK][dR][dK]-NH2)","increased the ratio of pMLC to MLC, however to a lesser extent than the parent PIP250",–,94%,58%,significantly different from control,1280 µM,84.1%,62.7%
–,–,"C[C@H](O)[C@@H](NC(=O)[C@@H](CCCCN)NC(=O)[C@@H](C)NC(=O)[C@@H](CCCCN)NC(=O)[C@@H](Cc1ccccc1)NC(=O)[C@@H](CCCNC(=N)N)NC(=O)[C@H](N)CCCNC(=N)N)C(=O)N[C@H](CCCCN)C(=O)N[C@H](CCCCN)C(=O)N[C@H](CCCNC(=N)N)C(=O)N[C@H](CCCCN)C(N)=O [PIP252, H-rrfkaktkkrk-NH2] (H-[dR][dR][dF][dK][dA][dK][dT][dK][dK][dR][dK]-NH2)","increased the ratio of pMLC to MLC, however to a lesser extent than the parent PIP250",–,70%,55%,significantly different from control,724 µM,61.4%,66%
–,–,"CC(C)[C@@H](NC(=O)[C@@H](CCCCN)NC(=O)[C@@H](CC(=O)O)NC(=O)[C@@H](CCCNC(=N)N)NC(=O)[C@H](N)CCCNC(=N)N)C(=O)N[C@H](CCCCN)C(=O)N[C@@H](C(=O)N[C@H](CCCCN)C(=O)N[C@H](CCCCN)C(=O)N[C@H](CCCNC(=N)N)C(=O)N[C@H](CCCCN)C(N)=O)[C@H](C)O [PIP253, H-rrdkvktkkrk-NH2] (H-[dR][dR][dD][dK][dV][dK][dT][dK][dK][dR][dK]-NH2)",did not significantly increase,–,–,–,not significant,–,–,88%
–,–,"C[C@H](O)[C@@H](NC(=O)[C@@H](CCCCN)NC(=O)[C@@H](CC(=O)O)NC(=O)[C@@H](CCCCN)NC(=O)[C@@H](Cc1ccccc1)NC(=O)[C@@H](CCCNC(=N)N)NC(=O)[C@H](N)CCCNC(=N)N)C(=O)N[C@H](CCCCN)C(=O)N[C@H](CCCCN)C(=O)N[C@H](CCCNC(=N)N)C(=O)N[C@H](CCCCN)C(N)=O [PIP254, H-rrfkdktkkrk-NH2] (H-[dR][dR][dF][dK][dD][dK][dT][dK][dK][dR][dK]-NH2)",did not significantly increase,–,–,–,not significant,–,–,85%
0.05 µM,0.049 µM,"MYPT11-299: amino acids 1-299 of MYPT1 (protein, UniProt O14974 1-299, looked up, fragment) MKMADAKQKRNEQLKRWIGSETDLEPPVVKRQKTKVKFDDGAVFLAACSSGDTDEVLKLLHRGADINYANVDGLTALHQACIDDNVDMVKFLVENGANINQPDNEGWIPLHAAASCGYLDIAEFLIGQGAHVGAVNSEGDTPLDIAEEEAMEELLQNEVNRQGVDIEAARKEEERIMLRDARQWLNSGHINDVRHAKSGGTALHVAAAKGYTEVLKLLIQAGYDVNIKDYDGWTPLHAAAHWGKEEACRILVDNLCDMEMVNKVGQTAFDVADEDILGYLEELQKKQNLLHSEKRDKKS",–,–,–,–,–,–,–,–
